# Test results published in patent US10301664B2, “Repurposing non-antimicrobial drugs and clinical molecules to treat bacterial infections” (Purdue Research Foundation, priority 2015, dated 2019).
# Read-outs that look alike come from different tables or passages of the source.
# Key:
# [1] = test system: clinical isolates of S. aureus; assay: MIC90 over clinical isolates of S. aureus; assay type: cell-based; conditions: Staphylococcus aureus, Table 1, read-out: MIC90 (MIC at which 90% of clinical isolates of S. aureus were inhibited)
# [2] = test system: Vancomycin-resistant S. aureus (VRSA); assay: MIC and MBC against vancomycin-resistant S. aureus clinical isolates (CLSI); assay type: cell-based; conditions: Staphylococcus aureus, VRSA; for MBC: read-out: MBC; for MIC: read-out: MIC
# S. epidermidis NRS 101 = assay: MIC and MBC against S. epidermidis (CLSI); assay type: cell-based; conditions: Staphylococcus epidermidis, NRS101
# MRSA USA300 = assay: Library hits: MIC/MBC against MRSA; assay type: cell-based, Staphylococcus aureus; conditions: Staphylococcus aureus
# [3] = test system: A. baumannii ATCC BAA-1605; assay: Library hits: MIC against A. baumannii; assay type: cell-based
# [4] = test system: K. pneumoniae ATCC BAA-1705; assay: Library hits: MIC against K. pneumoniae; assay type: cell-based
# [5] = test system: vancomycin resistant E. faecium ATCC 700221 (VRE); assay: Library hits: MIC/MBC against VRE; assay type: cell-based; conditions: VRE
# MRSA USA200 = assay type: in vivo, BALB/c mice; conditions: EB 30 mg/kg or FdUrd 25 mg/kg once daily for three days, monitored six days
# Experimental: Animal procedures were approved by the Purdue University Animal Care and Use Committee (PACUC) (protocol no. 1311000988). Eight-week-old female BALB/c mice (Harlan Laboratories, Indianapolis, Ind.) were used for this study. Mice were rendered neutropenic by treatment with cyclophosphamide intraperitoneally (IP) 150 and 100 mg/kg at four days and one day before infection, respectively. Neutropenic mice were inoculated IP with 8×10^8 MRSA USA200. At one hour after infection, the mice were divided into five groups (n=10 per group), and two groups were treated orally with either EB 30 mg/kg or FdUrd 25 mg/kg. Two groups were treated IP with either EB 30 mg/kg or FdUrd 25 mg/kg. One group was used as a control with no treatment. Treatment was continued once daily for two more days (animals received three doses total). Mortality was monitored four times daily for six days, and the cumulative percent survival was determined. The data were subjected to statistical analysis using Kaplan-Meier survival curves. A log rank test was performed for 95% confidence intervals by GraphPad Prism 6.0 (GraphPad Software, La Jolla, Calif.).
# [6] = test system: Methicillin-sensitive S. aureus (MSSA); assay: MIC and MBC against methicillin-sensitive S. aureus isolates (CLSI); assay type: cell-based; conditions: Staphylococcus aureus; for MBC: read-out: MBC; for MIC: read-out: MIC
# [7] = test system: E. fecalis ATCC 51229 (VRE); assay: MIC and MBC against E. fecalis VRE (CLSI); assay type: cell-based; conditions: Enterococcus
# Experimental: The NIH Clinical Collections 1 and 2 (http://www.nihclinicalcollection.com) containing 727 FDA approved drugs and small molecules previously used in human clinical trials with known safety profiles were screened against ESKAPE pathogens. The library was initially screened at a single concentration of 16 μM to identify “hit” non-antibacterial drugs. Once the antimicrobial activity of the drugs was confirmed, we determined their MICs and minimum bactericidal concentrations (MBCs) according to the Clinical and Laboratory Standards Institute (CLSI).
# [8] = test system: Methicillin resistant S. aureus (MRSA); assay: MIC and MBC against methicillin resistant S. aureus clinical isolates (CLSI); assay type: cell-based; conditions: Staphylococcus aureus; for MBC: read-out: MBC; for MIC: read-out: MIC
# [9] = test system: Vancomycin-intermediate S. aureus (VISA); assay: MIC and MBC against vancomycin-intermediate S. aureus isolates (CLSI); assay type: cell-based; conditions: Staphylococcus aureus; for MBC: read-out: MBC; for MIC: read-out: MIC
# [10] = test system: E. faecium ATCC 700221 (VRE); assay: MIC and MBC against E. faecium VRE (CLSI), Table 1; assay type: cell-based; conditions: Enterococcus faecium
# [11] = MRSA / NRS 119, NRS119 (resistant to linezolid)
smiles,measurement,setting,value
"O=c1[nH]c(=O)n([C@H]2C[C@H](O)[C@@H](CO)O2)cc1F [FdUrd, 5-fluoro-2′-deoxyuridine]",MIC90,[1],3.9 ng/mL
same,MBC,[2]; VRSA1,7.8 ng/mL
same,MIC,[2]; VRSA1,7.8 ng/mL
same,MBC,[2]; VRSA2,15.6 ng/mL
same,MIC,[2]; VRSA2,3.9 ng/mL
same,MBC,[2]; VRSA3a,0.975 ng/mL
same,MIC,[2]; VRSA3a,0.975 ng/mL
same,MBC,[2]; VRSA3b,0.49 ng/mL
same,MIC,[2]; VRSA3b,0.49 ng/mL
same,MBC,[2]; VRSA4,3.9 ng/mL
same,MIC,[2]; VRSA4,1.95 ng/mL
same,MBC,[2]; VRSA5,1.95 ng/mL
same,MIC,[2]; VRSA5,1.95 ng/mL
same,MBC,[2]; VRSA6,1.95 ng/mL
same,MIC,[2]; VRSA6,0.49 ng/mL
same,MBC,[2]; VRSA7,3.9 ng/mL
same,MIC,[2]; VRSA7,1.95 ng/mL
same,MBC,[2]; VRSA8,0.975 ng/mL
same,MIC,[2]; VRSA8,0.49 ng/mL
same,MBC,[2]; VRSA9,1.95 ng/mL
same,MIC,[2]; VRSA9,0.975 ng/mL
same,MBC,[2]; VRSA10,0.975 ng/mL
same,MIC,[2]; VRSA10,0.975 ng/mL
same,MBC,[2]; VRSA11a,15.6 ng/mL
same,MIC,[2]; VRSA11a,0.975 ng/mL
same,MBC,[2]; VRSA11b,3.9 ng/mL
same,MIC,[2]; VRSA11b,0.975 ng/mL
same,MBC,[2]; VRSA12,3.9 ng/mL
same,MIC,[2]; VRSA12,1.95 ng/mL
same,MBC,[2]; VRSA13,15.6 ng/mL
same,MIC,[2]; VRSA13,1.95 ng/mL
same,MBC,S. epidermidis NRS 101,7.8 ng/mL
same,MIC,S. epidermidis NRS 101,7.8 ng/mL
same,MBC,MRSA USA300; read-out: MBC,0.5 µM
same,MIC,MRSA USA300; read-out: MIC,< 0.5 µM
same,MIC/MBC,[3],>16 µM
same,MIC/MBC,[4],8 µM
same,MBC,[5],0.5 µM
same,MIC,[5]; read-out: MIC,< 0.5 µM
same,mice survival compared to that of control,MRSA USA200; IP,100%
same,mice survival compared to that of control,MRSA USA200; oral,60%
same,MBC,[6]; MSSA / NRS 72,1.95 ng/mL
same,MIC,[6]; MSSA / NRS 72,0.975 ng/mL
same,MBC,[6]; MSSA / NRS 77,0.49 ng/mL
same,MIC,[6]; MSSA / NRS 77,0.49 ng/mL
same,MBC,[6]; MSSA / NRS 846,3.9 ng/mL
same,MIC,[6]; MSSA / NRS 846,3.9 ng/mL
same,MBC,[6]; MSSA / NRS 860,1.95 ng/mL
same,MIC,[6]; MSSA / NRS 860,1.95 ng/mL
same,MBC,[7],125 ng/mL
same,MIC,[7],125 ng/mL
same,MBC,[8]; MRSA / NRS 70,3.15 ng/mL
same,MIC,[8]; MRSA / NRS 70,3.9 ng/mL
same,MBC,[8]; MRSA / NRS 71,1.95 ng/mL
same,MIC,[8]; MRSA / NRS 71,1.95 ng/mL
same,MBC,[8]; MRSA / NRS 100,0.975 ng/mL
same,MIC,[8]; MRSA / NRS 100,0.975 ng/mL
same,MBC,[8]; MRSA / NRS 108,15.6 ng/mL
same,MIC,[8]; MRSA / NRS 108,7.8 ng/mL
same,MBC,[8]; [11],15.6 ng/mL
same,MIC,[8]; [11],3.9 ng/mL
same,MBC,[8]; MRSA / NRS 123,3.9 ng/mL
same,MIC,[8]; MRSA / NRS 123,0.975 ng/mL
same,MBC,[8]; MRSA / NRS 194,62.5 ng/mL
same,MIC,[8]; MRSA / NRS 194,3.9 ng/mL
same,MBC,[8]; MRSA / NRS 382,7.8 ng/mL
same,MIC,[8]; MRSA / NRS 382,0.975 ng/mL
same,MBC,[8]; MRSA / NRS 383,7.8 ng/mL
same,MIC,[8]; MRSA / NRS 383,7.8 ng/mL
same,MBC,"[8]; MRSA / NRS 384, NRS 384",1.95 ng/mL
same,MIC,"[8]; MRSA / NRS 384, NRS 384",1.95 ng/mL
same,MBC,"[8]; MRSA / NRS 385, NRS 385",31.5 ng/mL
same,MIC,"[8]; MRSA / NRS 385, NRS 385",31.5 ng/mL
same,MBC,"[8]; MRSA / NRS 386, NRS 386",7.8 ng/mL
same,MIC,"[8]; MRSA / NRS 386, NRS 386",1.95 ng/mL
same,MBC,"[8]; MRSA / NRS 387, NRS 387",15.6 ng/mL
same,MIC,"[8]; MRSA / NRS 387, NRS 387",3.9 ng/mL
same,MBC,"[8]; MRSA / NRS 483, NRS 483",7.8 ng/mL
same,MIC,"[8]; MRSA / NRS 483, NRS 483",1.95 ng/mL
same,MBC,"[8]; MRSA / NRS 484, NRS 484",3.9 ng/mL
same,MIC,"[8]; MRSA / NRS 484, NRS 484",0.975 ng/mL
same,MBC,"[9]; NRS 1 / VISA, NRS 1",1.95 ng/mL
same,MIC,"[9]; NRS 1 / VISA, NRS 1",1.95 ng/mL
same,MBC,[9]; NRS 19 / VISA,1.95 ng/mL
same,MIC,[9]; NRS 19 / VISA,0.49 ng/mL
same,MBC,[9]; NRS 37 / VISA,7.8 ng/mL
same,MIC,[9]; NRS 37 / VISA,1.95 ng/mL
same,MBC,[10],125 ng/mL
same,MIC,[10],62.5 ng/mL
